Measurements: doi:10.1101/761585v1, “A simple method to determine the elimination half-life of drugs displaying noncumulative toxicity” (bioRxiv, 2019)
Several values for one entry are separate records, joined by “and”; a condition that tells them apart may be missing. Equal entries are not always repeated.

What was measured:
BALB/c mice [1] = assay: Acute toxicity, single intraperitoneal dose, 5-day survival; assay type: in vivo, mouse; conditions: highest single intraperitoneal dose causing no mortality in BALB/c mice observed for 5 days
Experimental: Acute toxicity comprises the lethal effects of a single dose of a drug, rather than the combined lethal effects of multiple doses of a drug. BALB/c mice (6-8 weeks, 20 g) were injected intraperitoneally with varying doses of Ω76 and Pexiganan, at 2-fold concentration increments. 5 mice per concentration cohort were used. […] Mice treated with both Ω76 and Pexiganan display mortality that increases in a dose-dependent manner. […] However, for TOXHL, determining the maximum nonlethal dose (MND) rather than the LD50 is more important. […] Here, the MND values for Ω76 and Pexiganan are […] (Figure 1A, shown in arrows).
Figure 1. All experiments required to determine the elimination half-life using TOXHL. BALB/c mice (6-8 weeks, 20 g) were used for all experiments. (A) Acute toxicity experiments to determine survival vs. concentration of drug injected intraperitoneally. Determining the maximum nonlethal dose (MND), which is the highest concentration of a drug that causes no mortality, is essential for later noncumulative toxicity experiments. Here, the MND for Pexiganan is 32 mg/kg (blue arrow), and the MND for Ω76 is 64 mg/kg (red arrow). (B) Multi-dose (non)cumulative toxicity determination experiments. Here, mice were intraperitoneally injected with 11 doses of drug (at the MND concentration), at 12 hour intervals over the course of 5 days. […]

BALB/c mice [2] = assay: Multi-dose (non)cumulative toxicity, 11 doses at the MND at 12 hour intervals; assay type: in vivo, mouse
Experimental: Figure 1. All experiments required to determine the elimination half-life using TOXHL. BALB/c mice (6-8 weeks, 20 g) were used for all experiments. (A) Acute toxicity experiments to determine survival vs. concentration of drug injected intraperitoneally. Determining the maximum nonlethal dose (MND), which is the highest concentration of a drug that causes no mortality, is essential for later noncumulative toxicity experiments. Here, the MND for Pexiganan is 32 mg/kg (blue arrow), and the MND for Ω76 is 64 mg/kg (red arrow). (B) Multi-dose (non)cumulative toxicity determination experiments. Here, mice were intraperitoneally injected with 11 doses of drug (at the MND concentration), at 12 hour intervals over the course of 5 days. All mice treated with Pexiganan died, indicating cumulative toxicity. All mice treated with Ω76 survived, indicating noncumulative toxicity. The difference between the survival outcomes of the Ω76 and Pexiganan cohorts are statistically significant (p=7e-3, Fisher’s test). […] 5 doses at the MND were injected intraperitoneally at Δt of 15, 7.5 and 3 minutes. 67% survival (33% mortality) was observed a Δt = 3 minutes (ΔtM, highlighted in yellow). […] Note that a separate set of similar experiments was described in our previous work[19], but these experiments were only used to assess the toxicity of Ω76.
Cumulative toxicity comprises the lethal effects of multiple doses of drug when injected intraperitoneally at MND concentrations. 10 BALB/c mice (6-8 weeks, 20 g) were treated with 11 doses of Pexiganan, administered at the MND (32 mg/kg) at 12 hour intervals, over the course of 5 days. Despite Pexiganan never exceeding the MND concentration, 100% mortality was observed. […] However, this damage is not reversed within the dosing interval timespan (12 hours), and additional doses only serve to incrementally increase the total damage caused to mice, until a threshold is reached and death occurs.
Figure 2. Peritonea of BALB/c mice (6-8 weeks, 20 g) treated with Ω76 and Pexiganan for (non)cumulative toxicity experiments. […]

[3] = Solubility of peptide stocks in saline vs PBS; assay type: physicochemical; conditions: 20 mg/mL stocks prepared in physiological saline (0.8% NaCl)
Experimental: For all experiments described in this work, BALB/c mice (6-8 weeks, 20 g) were housed at the Central Animal Facility (CAF, IISc) and fed ad libitum with pellet feed and water. All animal experiments were approved by the Institutional Animal Ethics Committee, IISc (Project No. CAF/Ethics/550/2017). A detailed description of all methods used is provided in the results section. However, it should be noted that 20 mg/mL stocks for both Ω76 and Pexiganan were prepared in physiological saline (0.8% NaCl) and stored at −80 °C. […] These stocks were diluted in saline to obtain the concentration needed for the specific experiment. All intraperitoneal injections were 200 μL in volume, as larger volumes could alter peritoneal elimination kinetics.

For Pexiganan, the “maximum nonlethal dose (MND)” value (BALB/c mice [1]) was 64 mg/kg and 32 mg/kg, the “survival outcome after 11 doses at the MND” value (BALB/c mice [2]; 10 BALB/c mice, 11 intraperitoneal doses at the MND (Pexiganan 32 mg/kg, Ω76 64 mg/kg), 12 hour intervals over 5 days) was “died” and the “mortality after 11 doses at the MND” value (BALB/c mice [2]; 10 BALB/c mice, 11 intraperitoneal doses of Pexiganan at the MND (32 mg/kg), 12 hour intervals over 5 days) was 100%. For the same substance, the “autopsy finding, peritoneal organs” value (BALB/c mice [2]; BALB/c mice, intraperitoneal doses at the MND at 12 hour intervals (Ω76 11 doses of 64 mg/kg over 5 days; Pexiganan 32 mg/kg until mortality)) was “intestinal inflammation is clearly visible” and the “solubility in phosphate buffered saline (PBS) compared with physiological saline” value [3] was “poorer solubility”.
